Results from US6737383B1, “Herbicidal oxadiazolidines” (priority 1999, dated 2004).

Assays:
[1] = tested on: giant foxtail; assay: Test B pre/postemergence giant foxtail; format: in vivo, Setaria faberii; details: for Giant foxtail plant response rating: scale of 0 to 10 where 0 is no effect and 10 is complete control
In short: (§1)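 Response is a visual 0-to-10 score relative to untreated plants, where 0 means no effect and 10 means complete control, taken twelve to sixteen days after application. Treatments went onto soil at planting and onto foliage of 1- to 4-leaf plants, using a surfactant-containing non-phytotoxic solvent.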

[2] = tested on: bamyardgrass; assay: Test B flood test barnyardgrass; format: in vivo, Echinochloa crus-galli
In short: (§2)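 Flood test on plants grown to the 2-leaf stage; treated plants kept in greenhouse twelve to sixteen days, then visually rated against controls on a 0 (no effect) to 10 (complete control) scale.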

[3] = tested on: cocklebur; assay: Test B pre/postemergence cocklebur; format: in vivo, Xanthium strumarium; details: for Cocklebur plant response rating: scale of 0 to 10 where 0 is no effect and 10 is complete control
In short: as §1

[4] = tested on: smallflower flatsedge; assay: Test B flood test smallflower flatsedge; format: in vivo, Cyperus difformis
In short: as §2

[5] = tested on: velvetleaf; assay: Test B pre/postemergence velvetleaf; format: in vivo, Abutilon theophrasti; details: for Velvetleaf plant response rating: scale of 0 to 10 where 0 is no effect and 10 is complete control
In short: as §1

[6] = tested on: wheat; assay: Test B pre/postemergence wheat; format: in vivo, Triticum aestivum; details: for Wheat plant response rating: scale of 0 to 10 where 0 is no effect and 10 is complete control
In short: as §1

[7] = tested on: corn; assay: Test B pre/postemergence corn; format: in vivo, Zea mays; details: for Corn plant response rating: scale of 0 to 10 where 0 is no effect and 10 is complete control
In short: as §1

[8] = tested on: morningglory; assay: Test B pre/postemergence morningglory; format: in vivo, Ipomoea hederacea; details: for Morningglory plant response rating: scale of 0 to 10 where 0 is no effect and 10 is complete control
In short: as §1

[9] = tested on: wild oat; assay: Test B pre/postemergence wild oat; format: in vivo, Avena fatua; details: for Wild oats plant response rating: scale of 0 to 10 where 0 is no effect and 10 is complete control
In short: as §1

[10] = tested on: bedstraw; assay: Test B pre/postemergence bedstraw; format: in vivo, Galium aparine
In short: as §1

[11] = tested on: crabgrass; assay: Test B pre/postemergence crabgrass; format: in vivo, Digitaria sanguinalis; details: for Crabgrass plant response rating: scale of 0 to 10 where 0 is no effect and 10 is complete control
In short: as §1

[12] = tested on: duck salad; assay: Test B flood test duck salad; format: in vivo, Heteranthera limosa
In short: as §2

[13] = tested on: soybean; assay: Test B pre/postemergence soybean; format: in vivo, Glycine max; details: for Soybean plant response rating: scale of 0 to 10 where 0 is no effect and 10 is complete control
In short: as §1

[14] = tested on: rape; assay: Test B pre/postemergence rape; format: in vivo, Brassica napus; details: for Rape plant response rating: scale of 0 to 10 where 0 is no effect and 10 is complete control
In short: as §1

[15] = tested on: surinam grass; assay: Test B pre/postemergence surinam grass; format: in vivo, Brachiaria decumbens
In short: as §1

[16] = tested on: blackgrass; assay: Test B pre/postemergence blackgrass; format: in vivo, Alopecurus myosuroides
In short: as §1

[17] = Postemergence, Rate 125 g/ha, scale 0 to 10, 0 is no effect, 10 is complete control
[18] = Rate 500 g/ha, Postemergence, scale 0 to 10, 0 no effect, 10 complete control
[19] = Rate 62 g/ha, headed Pre-emergence (flood test species), scale 0 to 10 (0 no effect, 10 complete control)
[20] = Rate 125 g/ha, Pre-emergence, flood test species, scale 0 to 10 where 0 is no effect and 10 is complete control
[21] = Rate 250 g/ha, Pre-emergence, flood-test species, scale 0 to 10, 0 is no effect, 10 is complete control
[22] = Rate 500 g/ha, Pre-emergence, flood test species, scale 0 to 10 (0 no effect, 10 complete control)
[23] = Preemergence, Rate 62 g/ha, scale of 0 to 10 where 0 is no effect and 10 is complete control
[24] = Preemergence, Rate 500 g/ha, scale of 0 to 10 where 0 is no effect and 10 is complete control
[25] = Rate 62 g/ha, Postemergence, scale of 0 to 10 where 0 is no effect and 10 is complete control
[26] = Rate 250 g/ha, Postemergence, scale of 0 to 10 where 0 is no effect and 10 is complete control
[27] = Preemergence, Rate 250 g/ha, scale of 0 to 10 where 0 is no effect and 10 is complete control

CC(C)N(C(=O)n1oc(=O)n(C2CCCCCC2)c1=O)c1ccc(F)cc1 [Compound 340]
0: Plant response rating, Giant foxtail [1, 17] | Giant foxtail plant response rating ([1]; Rate 62 g/ha, Postemergence) | Plant response rating, Cocklebur [3, 17] | Cocklebur plant response rating ([3]; Preemergence, Rate 62 g/ha) | Cocklebur plant response rating (0 to 10 scale) ([3]; Preemergence, Rate 125 g/ha) | Cocklebur plant response rating ([3]; Preemergence, Rate 250 g/ha) | Cocklebur plant response rating ([3]; Preemergence, Rate 500 g/ha) | Cocklebur plant response rating ([3]; Rate 62 g/ha, Postemergence) | Plant response rating, Cocklebur [3, 18] | S. Flatsedge plant response rating [4, 19] | S. Flatsedge plant response rating [4, 20] | Plant response rating, Velvetleaf [5, 17] | Velvetleaf plant response rating ([5]; Preemergence, Rate 62 g/ha) | Velvetleaf plant response rating (0 to 10 scale) ([5]; Preemergence, Rate 125 g/ha) | Velvetleaf plant response rating ([5]; Preemergence, Rate 250 g/ha) | Velvetleaf plant response rating ([5]; Rate 62 g/ha, Postemergence) | Plant response rating, Wheat [6, 17] | Wheat plant response rating ([6]; Preemergence, Rate 62 g/ha) | Wheat plant response rating (0 to 10 scale) ([6]; Preemergence, Rate 125 g/ha) | Wheat plant response rating ([6]; Preemergence, Rate 250 g/ha) | Wheat plant response rating ([6]; Preemergence, Rate 500 g/ha) | Wheat plant response rating ([6]; Rate 62 g/ha, Postemergence) | Plant response rating, Wheat [6, 18] | Plant response rating, Corn [7, 17] | Corn plant response rating ([7]; Preemergence, Rate 62 g/ha) | Corn plant response rating (0 to 10 scale) ([7]; Preemergence, Rate 125 g/ha) | Corn plant response rating ([7]; Preemergence, Rate 250 g/ha) | Corn plant response rating ([7]; Preemergence, Rate 500 g/ha) | Corn plant response rating ([7]; Rate 62 g/ha, Postemergence) | Plant response rating, Corn [7, 18] | Morningglory plant response rating ([8]; Preemergence, Rate 62 g/ha) | Morningglory plant response rating (0 to 10 scale) ([8]; Preemergence, Rate 125 g/ha) | Morningglory plant response rating ([8]; Preemergence, Rate 250 g/ha) | Morningglory plant response rating ([8]; Preemergence, Rate 500 g/ha) | Plant response rating, Wild oats [9, 17] | Wild oats plant response rating ([9]; Preemergence, Rate 62 g/ha) | Wild oats plant response rating (0 to 10 scale) ([9]; Preemergence, Rate 125 g/ha) | Wild oats plant response rating ([9]; Rate 62 g/ha, Postemergence) | Plant response rating, Wild oats [9, 18] | Bedstraw plant response rating [10, 23] | Bedstraw plant response rating (0 to 10 scale) ([10]; Preemergence, Rate 125 g/ha) | Plant response rating, Crabgrass [11, 17] | Crabgrass plant response rating ([11]; Preemergence, Rate 62 g/ha) | Crabgrass plant response rating ([11]; Rate 62 g/ha, Postemergence) | Ducksalad plant response rating [12, 19] | Ducksalad plant response rating [12, 20] | Ducksalad plant response rating [12, 21] | Soybean plant response rating ([13]; Preemergence, Rate 62 g/ha) | Soybean plant response rating (0 to 10 scale) ([13]; Preemergence, Rate 125 g/ha) | Soybean plant response rating ([13]; Preemergence, Rate 250 g/ha) | Soybean plant response rating ([13]; Preemergence, Rate 500 g/ha) | Rape plant response rating ([14]; Preemergence, Rate 62 g/ha) | Rape plant response rating (0 to 10 scale) ([14]; Preemergence, Rate 125 g/ha) | Rape plant response rating ([14]; Preemergence, Rate 250 g/ha) | Rape plant response rating ([14]; Preemergence, Rate 500 g/ha) | Plant response rating, B. signalgrass [15, 17] | B. signalgrass plant response rating [15, 23] | B. signalgrass plant response rating (0 to 10 scale, 0 is no effect, 10 is complete control) ([15]; Preemergence, Rate 125 g/ha) | B. signalgrass plant response rating [15, 25] | Plant response rating, B. signalgrass [15, 26] | Plant response rating, B. signalgrass [15, 18] | Plant response rating, Blackgrass [16, 17] | Blackgrass plant response rating [16, 23] | Blackgrass plant response rating [16, 25]
1: Soybean plant response rating ([13]; Rate 62 g/ha, Postemergence) | B. signalgrass plant response rating [15, 27]
8: Giant foxtail plant response rating ([1]; Preemergence, Rate 62 g/ha) | Plant response rating, Bedstraw [10, 18] | Crabgrass plant response rating ([11]; Preemergence, Rate 250 g/ha) | Blackgrass plant response rating [16, 24] | Plant response rating, Blackgrass [16, 18]
9: Barnyardgrass plant response rating [2, 22] | S. Flatsedge plant response rating [4, 22] | Crabgrass plant response rating ([11]; Preemergence, Rate 500 g/ha)
10: Giant foxtail plant response rating (0 to 10 scale) ([1]; Preemergence, Rate 125 g/ha) | Giant foxtail plant response rating ([1]; Preemergence, Rate 250 g/ha) | Giant foxtail plant response rating ([1]; Preemergence, Rate 500 g/ha) | Barnyardgrass plant response rating [2, 21] | Plant response rating, Morningglory [8, 18]
2: S. Flatsedge plant response rating [4, 21] | Velvetleaf plant response rating ([5]; Preemergence, Rate 500 g/ha) | Morningglory plant response rating ([8]; Rate 62 g/ha, Postemergence) | Wild oats plant response rating ([9]; Preemergence, Rate 250 g/ha) | Plant response rating, Crabgrass [11, 18] | Plant response rating, Soybean [13, 17] | Plant response rating, Rape [14, 17] | Rape plant response rating ([14]; Rate 62 g/ha, Postemergence) | B. signalgrass plant response rating [15, 24] | Blackgrass plant response rating (0 to 10 scale) ([16]; Preemergence, Rate 125 g/ha)
6: Plant response rating, Giant foxtail [1, 18] | Barnyardgrass plant response rating [2, 20] | Plant response rating, Rape [14, 18]
5: Bedstraw plant response rating [10, 24] | Ducksalad plant response rating [12, 22]
3: Plant response rating, Velvetleaf [5, 18] | Wild oats plant response rating ([9]; Preemergence, Rate 500 g/ha) | Bedstraw plant response rating [10, 25] | Crabgrass plant response rating (0 to 10 scale) ([11]; Preemergence, Rate 125 g/ha) | Plant response rating, Soybean [13, 18] | Blackgrass plant response rating [16, 27] | Plant response rating, Blackgrass [16, 26]
7: Barnyardgrass plant response rating [2, 19] | Plant response rating, Morningglory [8, 17] | Plant response rating, Bedstraw [10, 17] | Plant response rating, Bedstraw [10, 26]
